# Data as given in patent US7312248B2, “Control of parasites in animals by the use of novel trifluoromethanesulfonanilide oxime ether derivatives” (Schering-Plough Animal Health Corporation, priority 2004, dated 2007).
# Where two headings read alike, the source gives them in different places.
# What was measured:
# Format in all cases: in vivo
# [1] = test system: Haemonchus contortus; assay: Haemonchus contortus larvacidal (larval development) assay; details: 144 h, read-out: Haemonchus contortus LD99
# Method in brief: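 Nematode eggs placed on agar containing compound (12 two-fold dilutions, final 0.024–50 μg/ml) and left 6 days to develop to L3. LD99 is the lowest concentration inhibiting development of 99% of larvae, derived from well titre (2^n−1) and top concentration.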
# [2] = test system: cat flea (Ctenocephalides felis); assay: whole plant or invertebrate; details: Ctenocephalides felis
# Method in brief: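 Adult C. felis (3-7 days post-emergence; 15 per flask, at least 4 replicates) exposed to a glass flask base dried 24 h after coating with compound in acetone at 1.26 μg/cm^2. Held at 25±1 °C, 75±5% humidity; mortality (immobile or unable to right) scored at 8, 24 and/or 48 h as percentage.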
# [3] = test system: cat flea (Ctenocephalides felis); assay: Ctenocephalides felis adulticide assay: dose response (LC50)
# Method in brief: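 Groups of 15 adult cat fleas, 3–7 days post-emergence, were exposed for 24 h at 25° C and 75% humidity to glass flask bases coated with six serial doses in acetone and dried for 24 h. Mortality was scored at 8 and 24 h, and LC50 was the surface-treatment concentration killing 50%.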
# [4] = test system: Brown Dog Tick (Rhipicephalus sanguineus); assay: Rapid screening protocol for topical application on brown dog ticks; details: 48 h; Laboratory 2 F data
# [5] = test system: Brown Dog Tick (Rhipicephalus sanguineus); assay: Dose response protocol for topical application on brown dog ticks (LD50); details: 24 h mortality
# Description: e) Dose response protocol for topical application on brown dog ticks (Rhipicephalus sanguineus): The test determines the level of insecticidal activity of sample compounds or formulations when applied topically on brown dog ticks. Sample compounds were stored prior to use in a freezer (−5±1° C.), unless otherwise specified.
# • Mortality: A tick is defined as dead after it gives no apparent response when touched lightly or gently breathed upon, while observed for 30 seconds. • LD50 (Lethal Dose 50): The dose of a topically applied treatment at which 50% of the dog ticks are killed. • Reference compound: To assess an experimental compound for significant acaricidal activity a single dose level is chosen, which is based upon known results from previous experiments using a commercially available active i.e., a reference compound. The reference compound selected is one in common use, and one that has a similar mode of action against the Brown Dog Tick (i.e., the test species). • Recovery container: A recovery container consists of a 500 ml round plastic container measuring 115 mm diameter and 70 mm height, with a tight fitting lid that has 10 small (˜1 mm) holes inserted for air exchange. A 90 mm diameter piece of filter paper was placed on the bottom of the container and moistened with 1 mL of de-stilled water.
# Adult, mixed sex, Brown Dog Ticks (Rhipicephalus sanguineus) were reared as follows: (i) cultured, (ii) transferred unfed, to a testing laboratory, and (iii) then maintained under controlled conditions (i.e., temp. 18°±2° C., humidity 75±5% RH). The ticks used were selected for vigor prior to testing, i.e., capable of actively walking and responsive to being touched or gently breathed upon.
# During the testing, the temperature was maintained at 25±1° C., and the humidity was ambient. Seven dose levels (concentrations) of sample compound, in the form of serial dilutions in acetone, were derived from a pilot study and covered a range that produced very low to very high mortality. Groups of ten ticks were treated topically (on the abdomen) with 1 μL of a single dose level of the sample compound. Each test was replicated four times, i.e., employing a total of 40 ticks per dose level of each sample compound. As a control, ten ticks were treated with solvent only (acetone) for each test. Following the treatment, the ticks were held in recovery containers maintained under appropriate rearing conditions for 24 hours. Mortality resulting from the treatments was recorded at 24 hours. […] Press, London (1971).]
# [6] = 8 h, read-out: C. felis Mortality (%) 8 h, 8 h, Laboratory 2 B data
# [7] = 24 h, read-out: C. felis Mortality (%) 24 h, 24 h, Laboratory 2 B data
Structure (SMILES),IC99 [1],"mortality at 1.26 µg/cm2, 1.26 µg/cm2 ([2]; 24 h, read-out: C. felis Mortality (%) 24 h, 24 h, Laboratory 1 A data)",C. felis LC50 ([3]; Laboratory 1 C data),C. felis LC50 ([3]; Laboratory 2 D data),R. sanguineus Mortality (%) 48 h [4],R. sanguineus LD50 [5],"mortality at 1.26 µg/cm2, 1.26 µg/cm2 [2, 6]","mortality at 1.26 µg/cm2, 1.26 µg/cm2 [2, 7]"
"CC/C(=N\Oc1ccc(F)cc1)c1cc(Cl)ccc1NS(=O)(=O)C(F)(F)F [Compound 130, N-{4-chloro-2-[1-(4-fluorophenoxyimino)propyl]phenyl}trifluoromethanesulfonamide]",1.5 µg/mL,100%,0.2 μg/cm^2,0.03 μg/cm^2,100%,1.5 μg/tick,,
"C/C(=N\OCC1CC1)c1cc(Cl)ccc1NS(=O)(=O)C(F)(F)F [Compound 187, N-[4-chloro-2-(1-cyclopropylmethoxyiminoethyl)phenyl]trifluoromethanesulfonamide]",,,0.1 μg/cm^2,0.005 μg/cm^2,100%,1.0 μg/tick,100%,100%
C/C(=N\OCC1CCCC1)c1cc(Cl)ccc1NS(=O)(=O)C(F)(F)F [Compound 189],,,,0.01^D μg/cm^2,100%,2.2 μg/tick,91%,97%
"CCC/C(=N\OCC)c1cc(Cl)ccc1NS(=O)(=O)C(F)(F)F [Compound 193, N-[4-chloro-2-(1-ethoxyiminobutyl)phenyl]trifluoromethanesulfonamide]",,,,0.01^D μg/cm^2,95%,1.2 μg/tick,88%,100%
"C/C(=N\OCc1ccc(Cl)s1)c1cc(Cl)ccc1NS(=O)(=O)C(F)(F)F [Compound 194, N-{4-chloro-2-[1-(5-chlorothiophen-2-ylmethoxyimino)ethyl]phenyl}trifluoromethanesulfonamide]",,,,0.02^D μg/cm^2,100%,2.0 μg/tick,100%,100%
"CC/C(=N\OCC1CC1)c1cc(Cl)ccc1NS(=O)(=O)C(F)(F)F [Compound 196, N-[4-chloro-2-(1-cyclopropylmethoxyiminopropyl)phenyl]trifluoromethanesulfonamide]",,,,0.008^D μg/cm^2,100%,1.2 μg/tick,96%,100%
C#CCO/N=C(\C)c1cc(Cl)ccc1NS(=O)(=O)C(F)(F)F [Compound 202],,,,0.01^D μg/cm^2,100%,0.9 μg/tick,100%,100%
CC/C(=N\OCC1CCCO1)c1cc(Cl)ccc1NS(=O)(=O)C(F)(F)F (stereo not shown) [Compound 205],,,,0.02^D μg/cm^2,100%,3.1 μg/tick,97%,98%
"CC/C(=N\OCc1cccs1)c1cc(Cl)ccc1NS(=O)(=O)C(F)(F)F [Compound 207, N-{4-chloro-2-[1-(thiophen-2-ylmethoxyimino)propyl]phenyl}trifluoromethanesulfonamide]",,,,0.007^D μg/cm^2,100%,2.5 μg/tick,98%,100%
C#CCO/N=C(\CC)c1cc(Cl)ccc1NS(=O)(=O)C(F)(F)F [Compound 208],,,,0.02^D μg/cm^2,100%,0.8 μg/tick,100%,100%
"CC(C)/C(=N\Oc1ccc(Cl)cc1)c1cc(Cl)ccc1NS(=O)(=O)C(F)(F)F [Compound 215, N-{4-chloro-2-[1-(4-chlorophenoxyimino)-2-methylpropyl]phenyl}trifluoromethanesulfonamide]",,,,0.07^D μg/cm^2,87%,1.7 μg/tick,82%,100%
C/C(=N\OC(C)(C)C)c1cc(Cl)ccc1NS(=O)(=O)C(F)(F)F [Compound 223],,,,0.04^D μg/cm^2,97%,1.4 μg/tick,92%,100%
CC/C(=N\OC(C)(C)C)c1cc(Cl)ccc1NS(=O)(=O)C(F)(F)F [Compound 224],,,,0.04^D μg/cm^2,95%,1.5 μg/tick,83%,100%
